Measurements taken from patent US20260263429A1, “INHIBITORS OF CA 2+/CALMODULIN-DEPENDENT PROTEIN KINASE II (CAMKII) THAT DO NOT INHIBIT LONG-TERM POTENTIATION (LTP) INDUCTION AND THERAPEUTIC USES THEREOF” (The Regents of the University of Colorado, A Body Corporate, priority 2023, published 2026).

Legend:
[1] = tested on: CaMKIIα binding to GST-GluN2B-c
Method: In a series of exemplary methods, an in vitro kinase assay was used where purified CaMKIIα is incubated at 30° C. with GST-GluA1 alongside ATP. CaMKIIα normally phosphorylates S831 on the GluA1 subunit and this phosphorylation can be measured as a readout of CaMKIIα enzymatic activity (see e.g., FIG. 8B). […] In another exemplary method, binding of purified CaMKIIα to immobilized GST-GluN2B-c was induced by Ca^2+/CaM in the presence of a vehicle (none), 4 mM ADP or with […] AS105. […] At the same time, two exemplary methods were performed to observe ionomycin or chemical LTP (cLTP) induced co-localization of CaMKII and GluN2B either in HEK293 cells co-expressing GFP-CaMKII and mCherry-2BC or dissociated rat hippocampal cultures expressing GFP-CaMKII and mCh-PSD95 intrabody. HEK293 cells, incubating with vehicle or 10 μM AS105, were subjected to ionomycin. Hippocampal cultures, also incubating with either vehicle or 10 μM AS105, were treated with a chemical LTP (cLTP) stimulus (e.g., 100 μM glutamate, 10 μM glycine for 45 seconds). Confocal microscopy images were taken before and after each stimulus.
One possible mechanism by which AS283 could enhance GluN2B binding more than ATP is by suppressing CaMKII-mediated phosphorylation of GluN2B at S1303, as this phosphorylation within the CaMKII binding site on GluN2B reduces CaMKII binding.
Bound CaMKII was measured via immunoblot.

[2] = tested on: synaptic localization of CaMKII F89G / K42M; experiment: Synaptic localization of GFP-CaMKII F89G or K42M mutants in rat hippocampal cultures, basal and cLTP; assay type: cell-based; details: 10 μM NM-PP1, basal and cLTP
Method: This conclusion also predicts that the LTP stimulus-induced movement of CaMKII to excitatory synapses should be (i) impaired in the CaMKII F89G mutant; but (ii) normalized by pharmacogenetic rescue with NM-PP1. Indeed, both predictions were observed experimentally (FIGS. 4D-4E).
Chemical LTP stimulation. Chemical LTP (CL TP) was induced with 100 μM glutamate and 10 μM glycine for 45 seconds. Treatments were followed by washout in 5 volumes of fresh ACSF. For biochemistry experiments, neurons were treated with 1 μM TTX to silence neurons prior to treatment with cLTP.
Image analysis of hippocampal neurons. […] 2D maximum intensity projection images were then generated and analyzed using a custom-build program in ImageJ. The program utilizes combinatorial thresholding to mask regions of the cell that contain high intensity PSD-95 puncta (the post-synaptic side of excitatory synapses in dendritic spines) and regions of the dendritic shaft that contain no fluorescence intensity of PSD-95. As a measure of synaptic enrichment, the ratio of mean CaMKII fluorescence intensity of the PSD-95 mask to the mean CaMKII fluorescence intensity in the dendritic shaft mask is measured. Spine growth was assessed by measuring the changes in mCherry cell fill fluorescence intensity within dendritic spine ROIs (F/F0).

| SMILES | CaMKII binding to immobilized GluN2B compared to a control without nucleotide or inhibitor ([1]; 10 μM inhibitor, EGTA wash, immunoblot) | CaMKII binding to GluN2B in the presence of ADP ([1]; 1 mM ADP, AS283 10 μM) | Ca2+/CaM-induced CaMKII binding to immobilized WT GluN2B when ATP was substituted ([1]; AS283 versus 1 mM ATP) | enhancing effect on CaMKII binding to GluN2B S1303A mutant compared with ATP ([1]; phosphorylation-incompetent GluN2B S1303A) | impaired synaptic localization of CaMKII F89G mutant [2] |
| --- | --- | --- | --- | --- | --- |
| NCCNc1cccc(-c2ccnc3[nH]c4ccccc4c23)c1 [AS283] | increased CaMKII binding | did not inhibit CaMKII binding to GluN2B | significantly enhanced | indistinguishable |  |
| CC(C)(C)n1nc(Cc2cccc3ccccc23)c2c(N)ncnc21 [NM-PP1] |  |  |  |  | rescued |
